In ChEMBL document CHEMBL1201862, “PubChem BioAssay data set” (2004):
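Cultured in 96-well plates, cells were exposed to test compound for 48 hours across five concentrations. The concentration for 50% growth inhibition is given as GI50.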 Active and inactive are the calls of the source. No stated cut-off is given here; in the data, active = GI50 up to about 1.1 µM and inactive = higher.

Legend:
Experiment in all cases: growth of human tumour cells (NCI), 48 h
HT-29 = tested on: HT-29
MOLT-4 = tested on: MOLT-4
Malme-3M = tested on: Malme-3M
A498 = tested on: A498
SN12C = tested on: SN12C
SK-OV-3 = tested on: SK-OV-3
COLO 205 = tested on: COLO 205
SF-295 = tested on: SF-295
M14 = tested on: M14
NCI-H226 = tested on: NCI-H226
PC-3 = tested on: PC-3
SW-620 = tested on: SW-620
Hs-578T = tested on: Hs-578T
UACC-62 = tested on: UACC-62
OVCAR-8 = tested on: OVCAR-8
K562 = tested on: K562
SK-MEL-2 = tested on: SK-MEL-2
CCRF-CEM = tested on: CCRF-CEM
NCI-H460 = tested on: NCI-H460
HCC 2998 = tested on: HCC 2998

Structure (SMILES) | GI50 (HT-29) | GI50 (MOLT-4) | GI50 (Malme-3M) | GI50 (A498) | GI50 (SN12C) | GI50 (SK-OV-3) | GI50 (COLO 205) | GI50 (SF-295) | GI50 (M14) | GI50 (NCI-H226) | GI50 (PC-3) | GI50 (SW-620) | GI50 (Hs-578T) | GI50 (UACC-62) | GI50 (OVCAR-8) | GI50 (K562) | GI50 (SK-MEL-2) | GI50 (CCRF-CEM) | GI50 (NCI-H460) | GI50 (HCC 2998)
COc1cc2c(cc1OC)C(=O)N(c1ccc(OCCN3CCCC3)cc1)C2 | > 100 µM (inactive) | > 100 µM (inactive) | > 100 µM (inactive) | > 100 µM (inactive) | > 100 µM (inactive) | > 100 µM (inactive) | > 100 µM (inactive) | > 100 µM (inactive) | > 100 µM (inactive) | > 100 µM (inactive) | > 100 µM (inactive) | > 100 µM (inactive) | > 100 µM (inactive) | > 100 µM (inactive) | > 100 µM (inactive) | > 100 µM (inactive) | > 100 µM (inactive) | > 100 µM (inactive) | > 100 µM (inactive) | > 100 µM (inactive)
COc1ccc2nccc(NCCCN3CCN(CCCNc4ccnc5ccc(OC)cc45)CC3)c2c1 | 0.172 µM (active) | 0.107 µM (active) | 0.644 µM (active) | 2.58 µM (inactive) | 0.177 µM (active) | 1.53 µM (inactive) | 0.261 µM (active) | 0.975 µM (active) | 1.08 µM (active) | 0.255 µM (active) | 0.44 µM (active) | 0.11 µM (active) | 0.237 µM (active) | 0.918 µM (active) | 0.612 µM (active) | 0.228 µM (active) | 1.25 µM (inactive) | 0.0828 µM (active) | 0.296 µM (active) | 0.505 µM (active)
CCc1n[nH]c(=O)n1CCCCCCCCCCCCn1c(CC)n[nH]c1=O | 32.7 µM (inactive) | 22.5 µM (inactive) | 25.9 µM (inactive) | 29.2 µM (inactive) | 59.8 µM (inactive) | 62.4 µM (inactive) | 24.2 µM (inactive) | 25.1 µM (inactive) | 25.9 µM (inactive) | 36.9 µM (inactive) | 27.5 µM (inactive) | 37.2 µM (inactive) | 22 µM (inactive) | 18.3 µM (inactive) | 24.7 µM (inactive) | 17.9 µM (inactive) | 52.8 µM (inactive) | 18.7 µM (inactive) | 26.6 µM (inactive) | 34.5 µM (inactive)
Nc1nnc(-c2ccco2)c(-c2ccco2)n1 | > 100 µM (inactive) | > 100 µM (inactive) | > 100 µM (inactive) | > 100 µM (inactive) | > 100 µM (inactive) | > 100 µM (inactive) | > 100 µM (inactive) | > 100 µM (inactive) | > 100 µM (inactive) | > 100 µM (inactive) | > 100 µM (inactive) | > 100 µM (inactive) | > 100 µM (inactive) | > 100 µM (inactive) | > 100 µM (inactive) | > 100 µM (inactive) | > 100 µM (inactive) | > 100 µM (inactive) | > 100 µM (inactive) | > 100 µM (inactive)
CNC(=O)OCc1c(COC(=O)NC)c(-c2ccc(Cl)c(Cl)c2)n2c1SCC2 | 10 µM (inactive) | 12 µM (inactive) | 22.7 µM (inactive) | 0.836 µM (active) | 13 µM (inactive) | 6.21 µM (inactive) | 9.82 µM (inactive) | 13.6 µM (inactive) | 18.7 µM (inactive) | 0.387 µM (active) | 17.1 µM (inactive) | 10.8 µM (inactive) | 21 µM (inactive) | 5.74 µM (inactive) | 3.85 µM (inactive) | 11 µM (inactive) | 11.7 µM (inactive) | 13.4 µM (inactive) | 9.04 µM (inactive) | 19.7 µM (inactive)
COC(=O)C1=C(C(=O)OC)C2(C)CCC(=O)C1O2 (stereo not given) | > 10 µM (inactive) | > 10 µM (inactive) | > 10 µM (inactive) | > 10 µM (inactive) | > 10 µM (inactive) | > 10 µM (inactive) | > 10 µM (inactive) | > 10 µM (inactive) | > 10 µM (inactive) | > 10 µM (inactive) | > 10 µM (inactive) | > 10 µM (inactive) | > 10 µM (inactive) | > 10 µM (inactive) | > 10 µM (inactive) | > 10 µM (inactive) | > 10 µM (inactive) | > 10 µM (inactive) | > 10 µM (inactive) | > 10 µM (inactive)
CC1(C)CCC2(C(=O)OC3OC(CO)C(O)C(O)C3O)CCC3(C)C(=CCC4C5(C)CCC(OC6OC(CO)C(O)C(O)C6O)C(C)(C)C5CCC43C)C2C1 (stereo not given) | 9.46 µM (inactive) | 7.26 µM (inactive) | 9.77 µM (inactive) | > 25 µM (inactive) | 10.9 µM (inactive) | > 25 µM (inactive) | 8.04 µM (inactive) | 15.2 µM (inactive) | 14.8 µM (inactive) | 10.5 µM (inactive) | 13.6 µM (inactive) | 8.83 µM (inactive) | 10.7 µM (inactive) | 8.67 µM (inactive) | 15.8 µM (inactive) | 9.04 µM (inactive) | 5.45 µM (inactive) | 4.51 µM (inactive) | 6.59 µM (inactive) | 4.01 µM (inactive)
